The supplement of paper PMC10307832

Experiments:
Assay in all cases: relative viability (nuclei count vs DMSO), 5 days (fraction); higher = more cells survive
[1] = compound: C1/C(=C\C2=CC=CS2)/C(=O)/C(=C/C3=CC=CS3)/C1 + CCNC(=O)c1noc(-c2cc(C(C)C)c(O)cc2O)c1-c1ccc(CN2CCOCC2)cc1 [Luminespib] (partner 0.01 µM)
Summary of the method: (§1)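 Lung cancer cell lines in 1536-well plates got either a single drug or a fixed anchor-drug dose together with five library-drug doses (not always all listed) in √10 steps, by pin tool, on the day after seeding. Nuclei were counted after 5 days, and relative viability is the treated-to-vehicle ratio of nuclei counts. Values are medians of duplicate plates.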

[2] = compound: C1/C(=C\C2=CC=CS2)/C(=O)/C(=C/C3=CC=CS3)/C1 + CS(=O)(=O)CCNCc1ccc(-c2ccc3ncnc(Nc4ccc(OCc5cccc(F)c5)c(Cl)c4)c3c2)o1 [Lapatinib] (partner 2 µM)
Summary of the method: as §1

[3] = compound: C[C@]12O[C@H](C[C@]1(O)CO)n1c3ccccc3c3c4c(c5c6ccccc6n2c5c31)CNC4=O [Lestaurtinib] + CS(=O)(=O)N1CCN(Cc2cc3nc(-c4cccc5[nH]ncc45)nc(N4CCOCC4)c3s2)CC1 [Pictilisib] (partner 1 µM)
Summary of the method: as §1

[4] = compound: C1/C(=C\C2=CC=CS2)/C(=O)/C(=C/C3=CC=CS3)/C1 + NC(=O)Nc1cc(-c2cccc(F)c2)sc1C(=O)N[C@H]1CCCNC1 [AZD7762] (partner 0.2 µM)
Summary of the method: as §1

Cell Line	relative viability ([1]; first compound 0.2 µM)	relative viability ([1]; first compound 0.6325 µM)	relative viability ([1]; first compound 2 µM)	relative viability ([1]; first compound 6.325 µM)	relative viability ([1]; first compound 20 µM)	relative viability ([2]; first compound 0.2 µM)	relative viability ([2]; first compound 0.6325 µM)	relative viability ([2]; first compound 2 µM)	relative viability ([2]; first compound 6.325 µM)	relative viability ([2]; first compound 20 µM)	relative viability ([3]; first compound 0.005 µM)	relative viability ([3]; first compound 0.01581 µM)	relative viability ([3]; first compound 0.05 µM)	relative viability ([3]; first compound 0.1581 µM)	relative viability ([3]; first compound 0.5 µM)	relative viability ([4]; first compound 0.2 µM)	relative viability ([4]; first compound 0.6325 µM)	relative viability ([4]; first compound 2 µM)	relative viability ([4]; first compound 6.325 µM)	relative viability ([4]; first compound 20 µM)
SK-LU-1	0.204	0.191	0.202	0.181	0.214	0.91	0.787	0.846	0.721	0.922	0.464	0.464	0.297	0.436	0.246	–	–	–	–	–
LOU-NH91	0.332	0.358	0.413	0.328	0.338	0.744	0.821	0.782	0.607	0.802	0.539	0.482	0.517	0.444	0.314	0.744	0.837	0.834	0.697	0.745
LXF-289	0.705	0.735	0.633	0.611	0.691	0.926	0.915	0.886	0.792	0.91	0.715	0.756	0.475	0.523	0.247	1.07	1.13	1.16	1	1.07
NCI-H1299	–	–	–	–	–	1.04	0.951	0.909	0.939	0.995	0.558	0.502	0.222	0.305	0.133	–	–	–	–	–
HARA	0.785	0.923	1.09	0.853	0.791	0.768	0.657	0.874	0.321	0.818	0.356	0.451	0.334	0.187	0.179	0.431	0.271	0.319	0.361	0.336
LU99A	0.245	0.201	0.268	0.224	0.281	0.914	0.958	1.23	0.785	0.95	0.298	0.312	0.253	0.205	0.179	0.413	0.295	0.415	0.248	0.29
201T	1.14	1.05	1.04	1.03	1.01	1.01	1.01	1.14	0.979	1.05	0.677	0.691	0.64	0.601	0.533	0.626	0.704	0.689	0.411	0.58
HCC-827	0.85	0.608	0.454	0.592	0.636	0.21	0.177	0.205	0.191	0.204	1.13	0.8	0.896	0.833	0.388	0.21	0.192	0.245	0.226	0.245
NCI-H1666	1.09	1.01	1.02	0.49	1.04	0.633	0.59	0.565	0.561	0.614	0.46	0.486	0.39	0.358	0.388	0.877	0.86	0.968	0.793	0.815
NCI-H1915	0.851	0.786	0.741	0.356	0.821	0.984	0.996	0.964	0.937	1.03	0.945	0.966	0.654	0.418	0.282	0.73	0.67	0.689	0.642	0.677
NCI-H2009	1.05	1.05	0.941	0.741	1.03	0.882	0.872	1.02	0.868	0.917	0.795	0.691	0.43	0.54	0.149	–	–	–	–	–
ChaGo-K-1	0.62	0.652	0.45	0.295	0.22	–	–	–	–	–	0.726	1.15	0.663	0.421	0.356	0.91	0.9	0.873	0.581	0.51
COR-L 105	0.97	0.502	0.808	–	0.586	0.355	0.37	0.38	0.304	0.361	0.488	0.405	0.288	0.263	0.212	–	–	–	–	–
NCI-H2170	0.98	0.582	0.788	0.632	0.719	0.301	0.255	0.282	0.232	0.283	0.285	0.257	0.304	0.293	0.223	0.921	0.923	0.866	0.714	0.764
A549	–	–	–	–	–	1.04	0.957	1.05	0.932	0.902	0.61	0.588	0.184	0.251	0.0856	–	–	–	–	–
SW 1573	0.25	0.192	0.194	0.161	0.181	1.07	1.15	1.17	1.09	1.03	0.624	0.562	0.454	0.314	0.174	–	–	–	–	–
NCI-H1975	0.313	0.163	0.194	0.312	0.177	1.01	0.789	0.966	0.613	0.823	0.275	0.252	0.205	0.217	0.171	0.826	0.801	0.656	0.618	0.763
Calu-6	–	–	–	–	–	1.02	1.03	0.981	0.991	0.986	0.875	0.751	0.357	0.308	0.142	–	–	–	–	–
NCI-H1648	–	–	–	–	–	–	–	–	–	–	–	–	–	–	–	0.778	0.622	0.571	0.601	0.511
NCI-H1623	0.672	0.601	0.528	0.372	0.511	–	–	–	–	–	–	–	–	–	–	–	–	–	–	–
NCI-H3122	0.112	0.0975	0.0926	0.0901	0.086	1	1.06	1.04	0.877	0.995	0.671	0.798	0.628	0.45	0.423	0.983	0.919	0.968	0.956	0.967

Cell Line	relative viability ([1]; first compound 0.2 µM)	relative viability ([1]; first compound 0.6325 µM)	relative viability ([1]; first compound 2 µM)	relative viability ([1]; first compound 6.325 µM)	relative viability ([1]; first compound 20 µM)	relative viability ([2]; first compound 0.2 µM)	relative viability ([2]; first compound 0.6325 µM)	relative viability ([2]; first compound 2 µM)	relative viability ([2]; first compound 6.325 µM)	relative viability ([2]; first compound 20 µM)	relative viability ([3]; first compound 0.005 µM)	relative viability ([3]; first compound 0.01581 µM)	relative viability ([3]; first compound 0.05 µM)	relative viability ([3]; first compound 0.1581 µM)	relative viability ([3]; first compound 0.5 µM)	relative viability ([4]; first compound 0.2 µM)	relative viability ([4]; first compound 0.6325 µM)	relative viability ([4]; first compound 2 µM)	relative viability ([4]; first compound 6.325 µM)	relative viability ([4]; first compound 20 µM)
NCI-H2347	0.405	0.959	0.381	–	0.466	1.03	0.977	0.901	0.898	0.915	0.692	0.996	0.485	0.472	0.532	0.788	0.696	0.866	0.65	0.792
HCC-44	1.09	1.19	1.08	0.942	0.965	0.979	1.02	1	0.728	0.975	0.528	0.758	0.466	0.569	0.448	1.03	1.03	0.857	0.84	1.03
HCC-78	–	–	–	–	–	0.759	0.828	1.1	0.562	0.814	0.19	0.225	0.203	0.136	0.169	0.649	0.729	0.76	0.68	0.658
COR-L23	0.583	0.692	0.577	0.721	0.544	0.923	1.02	0.841	0.859	0.92	0.688	0.723	–	0.332	0.208	–	–	–	–	–
NCI-H1993	0.727	0.765	0.726	0.763	1.78	0.815	0.783	0.731	0.685	0.781	0.802	0.724	0.69	0.716	0.663	0.783	0.747	0.958	0.62	0.499
NCI-H2342	0.761	0.654	0.767	0.615	0.8	–	–	–	–	–	–	–	–	–	–	0.484	0.537	0.718	0.483	0.363
NCI-H2023	0.864	0.642	0.735	0.515	0.677	0.877	0.87	0.889	0.734	0.67	0.255	0.27	0.167	0.155	0.0782	–	–	–	–	–
LCLC-103H	1.05	0.901	1.07	0.936	0.989	–	–	–	–	–	0.61	0.623	0.521	0.443	0.481	0.772	0.742	0.9	0.613	0.783
NCI-H1563	0.567	0.511	0.552	0.534	0.492	0.996	0.903	0.97	0.953	0.955	0.635	0.709	0.618	0.638	0.536	–	–	–	–	–
HCC-366	–	–	–	–	–	1.14	0.926	1.07	0.84	0.931	0.159	0.178	0.192	0.101	0.0482	0.297	0.347	0.215	0.241	0.145
NCI-H522	1.13	0.991	1.32	1.12	1.07	–	–	–	–	–	–	–	–	–	–	0.936	0.809	0.822	0.9	0.94
SW 900	0.16	0.173	0.181	0.175	0.156	–	–	–	–	–	–	–	–	–	–	0.74	0.665	0.628	0.495	0.602
SK-MES-1	0.868	0.646	0.839	0.545	0.773	0.498	0.45	0.486	0.322	0.395	0.322	0.312	0.259	0.262	0.177	–	–	–	–	–
EBC-1	–	–	–	–	–	0.19	0.197	0.237	0.205	0.221	0.427	0.402	0.35	0.452	0.21	–	–	–	–	–
NCI-H1650	0.176	0.194	0.205	0.218	0.185	0.654	0.735	0.961	0.748	0.803	0.594	0.662	0.566	0.463	0.153	–	–	–	–	–
IA-LM	–	–	–	–	–	1.08	0.749	0.779	0.757	0.67	0.547	0.691	0.725	0.642	0.198	–	–	–	–	–
NCI-H1703	–	–	–	–	–	1.21	1.21	1.18	1.1	1.11	0.254	0.217	0.201	0.173	0.132	0.121	0.176	0.148	0.119	0.128
NCI-H661	0.942	0.964	0.934	0.843	0.929	0.465	0.49	0.507	0.475	0.516	0.35	0.461	0.411	0.352	0.336	–	–	–	–	–
NCI-H2228	0.158	0.167	0.179	0.133	0.134	1.22	1.12	1.14	0.939	1	0.461	0.551	0.332	0.325	0.198	–	–	–	–	–
NCI-H520	0.231	0.218	0.212	0.209	0.242	0.912	0.896	0.786	0.817	0.763	0.279	0.319	0.211	0.228	0.18	–	–	–	–	–
NCI-H441	0.331	0.377	0.343	0.37	0.345	–	–	–	–	–	0.346	0.342	0.215	0.299	0.171	1.35	1.22	1.29	1.01	1.13
